Results: ChEMBL document CHEMBL1201862, “PubChem BioAssay data set” (2004)
Structures can show the parent of a compound that is named as a salt. The source made the active and inactive calls.

Assays:
Cytochrome P450 2D6 = Cytochrome P450 2D6 (Homo sapiens, UniProt P10635);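 also: CYP2D6 member of a cytochrome P450 panel assay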
Cytochrome P450 2C19 = Cytochrome P450 2C19 (Homo sapiens, UniProt P33261); assay: Cytochrome panel assay with activity outcomes. Panel member name: p450-cyp2c19 Compounds with AC50 equal or less than 10 uM are considered active; type: functional; conditions: read-out: AC50
Cytochrome P450 3A4 = Cytochrome P450 3A4 (Homo sapiens, UniProt P08684);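 also: CYP3A4 tested as one member of a cytochrome P450 panel screen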
H9c2 = assay: cells; type: functional, cell-based; conditions: Rattus norvegicus, H9c2, Myocardium
INS1 = assay: beta cell apoptosis inhibitors, cytokine rescue, dose response, luminescence, retest (AID 449756); type: functional, cell-based; conditions: Rattus norvegicus;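 also: cell death triggered by IL-1 beta plus TNF-alpha plus IFN-gamma mixture; protective hits raise ATP signal compared with cytokine alone wells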
[1] = target: Heat shock protein HSP 90-alpha (Homo sapiens, UniProt P07900); type: functional, organism-based
[2] = cytotoxicity toward NIH3T3 fibroblasts, dose response, counter-screen, cell-based, ATP luminescence, mouse fibroblasts (AID 2010); type: functional;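 also: cells exposed to compound for about 90 hours before reading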
[3] = inhibitors of intracellular T. cruzi replication, confirmation, NIH3T3 host cells, beta-gal luminescence (AID 2044); type: functional, cell-based;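 also: intracellular parasites grown in NIH/3T3 mouse fibroblasts as host cells; luminescent beta-galactosidase reporter signal from transgenic T. cruzi replicating inside host cells; inhibitors lower the luminescence signal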
[4] = target: T1, Polyadenylate-binding protein 1 (Homo sapiens, UniProt P11940); assay: PABP1 MLLE–PAM2 interaction inhibitors, dose response, miRNA deadenylation inhibitor project, biochemical, fluorescence polarization, Cy5-PAM2 peptide, secondary (AID 602260); type: functional; conditions: read-out: IC50_Mean
[5] = target: T1, Polyadenylate-binding protein 1; assay: PABP1 MLLE–PAM2 binding inhibitor potency, dose response, biochemical, fluorescence polarization, FITC-PAM2 peptide (AID 602259); type: functional; conditions: read-out: IC50_Mean
Cytochrome P450 2C9 = Cytochrome P450 2C9 (Homo sapiens, UniProt P11712)
[6] = test system: Streptococcus sp. 'group A'; assay: growth inhibition of control SK(-) GAS strain, dose response, counter-screen for streptokinase expression inhibitor project, luminescence, kanamycin, BacTiterGlo, confirmation (AID 1900); type: functional, organism-based; conditions: read-out: EC50
Streptokinase A = target: T2, Streptokinase A (Streptococcus pyogenes serotype M1, UniProt P10520); assay: S. pyogenes streptokinase expression inhibitors, potency, dose response, plasminogen activation absorbance, OD405 (AID 1914); type: functional, Streptococcus pyogenes M1 GAS;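 also: secreted streptokinase activity via plasminogen activation per viability signal from cell pellet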
T2 sequence (P10520 whole entry): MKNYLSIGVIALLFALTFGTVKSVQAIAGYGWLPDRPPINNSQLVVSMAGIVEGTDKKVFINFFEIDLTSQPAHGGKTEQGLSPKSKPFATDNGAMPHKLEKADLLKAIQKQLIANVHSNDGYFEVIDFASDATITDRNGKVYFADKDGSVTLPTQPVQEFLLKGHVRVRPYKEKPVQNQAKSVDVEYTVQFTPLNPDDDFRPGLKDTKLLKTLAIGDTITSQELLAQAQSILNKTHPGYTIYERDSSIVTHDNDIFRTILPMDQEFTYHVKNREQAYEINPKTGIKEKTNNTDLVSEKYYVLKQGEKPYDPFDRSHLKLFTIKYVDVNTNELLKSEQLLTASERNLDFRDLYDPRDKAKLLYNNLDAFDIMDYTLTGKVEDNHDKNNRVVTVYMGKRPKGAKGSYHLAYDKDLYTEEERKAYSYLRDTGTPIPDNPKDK

Streptococcus = assay: Group A Streptococcus viability loss, dose response, counter-screen for streptokinase expression inhibitor project, luminescence, BacTiterGlo (AID 1915); type: functional, organism-based;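 also: potency for reduction of bacterial viability or growth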
[7] = HEp-2 cell cytotoxicity, dose response, cytotoxicity control for RSV inhibitor project, HTS (AID 2410); type: functional; conditions: human respiratory syncytial virus
Cytochrome P450 1A2 = target: T3, Cytochrome P450 1A2 (Homo sapiens, UniProt P05177);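 also: PubChem cytochrome P450 panel assay, CYP1A2 panel member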
T3 sequence (P05177 whole entry): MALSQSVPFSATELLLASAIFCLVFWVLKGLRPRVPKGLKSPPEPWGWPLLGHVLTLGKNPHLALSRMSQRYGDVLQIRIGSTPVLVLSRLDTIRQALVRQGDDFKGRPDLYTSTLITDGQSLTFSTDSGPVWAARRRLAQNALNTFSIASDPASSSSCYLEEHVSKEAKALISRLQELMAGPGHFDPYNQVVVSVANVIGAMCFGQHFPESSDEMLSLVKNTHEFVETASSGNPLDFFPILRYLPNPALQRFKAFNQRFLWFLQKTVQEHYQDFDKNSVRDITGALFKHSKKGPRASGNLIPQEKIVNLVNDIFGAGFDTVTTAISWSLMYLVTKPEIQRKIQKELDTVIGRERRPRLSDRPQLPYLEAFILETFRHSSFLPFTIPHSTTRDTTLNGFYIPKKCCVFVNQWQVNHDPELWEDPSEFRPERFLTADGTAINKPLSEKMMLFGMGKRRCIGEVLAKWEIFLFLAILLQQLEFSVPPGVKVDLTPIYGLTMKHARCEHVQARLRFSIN

[8] = Luminescence Cell-Based Dose Confirmation HTS to Identify Activators of 5'UTR Stem-Loop Driven Alpha-Synuclein mRNA Translation in H4 Neuroglioblastoma Cells. [Related pubchem assays: 1829 (Project Summary), 1814 (Primary HTS)]; type: functional
[9] = Luminescence Cell-Based Dose Response HTS to Identify Activators of Luciferase Translation or Activity in H4 […] Cells. [Related pubchem assays: 1829 (Project Summary), 1814 (Primary HTS)]; type: functional
H4 = assay: Luminescence Cell-Based Dose Response HTS to Identify Activators of 5'UTR Stem-Loop Driven Prion Protein mRNA Translation in H4 Neuroglioblastoma Cells. [Related pubchem assays: 1829 (Project Summary), 1814 (Primary HTS)]; type: functional; conditions: Homo sapiens
P388 = assay: cells; type: functional; conditions: Mus musculus
P388/ADR = assay: cells; type: functional; conditions: Mus musculus
SN12K1 = assay: cells; type: functional; conditions: Homo sapiens

T1 sequence (P11940 whole entry): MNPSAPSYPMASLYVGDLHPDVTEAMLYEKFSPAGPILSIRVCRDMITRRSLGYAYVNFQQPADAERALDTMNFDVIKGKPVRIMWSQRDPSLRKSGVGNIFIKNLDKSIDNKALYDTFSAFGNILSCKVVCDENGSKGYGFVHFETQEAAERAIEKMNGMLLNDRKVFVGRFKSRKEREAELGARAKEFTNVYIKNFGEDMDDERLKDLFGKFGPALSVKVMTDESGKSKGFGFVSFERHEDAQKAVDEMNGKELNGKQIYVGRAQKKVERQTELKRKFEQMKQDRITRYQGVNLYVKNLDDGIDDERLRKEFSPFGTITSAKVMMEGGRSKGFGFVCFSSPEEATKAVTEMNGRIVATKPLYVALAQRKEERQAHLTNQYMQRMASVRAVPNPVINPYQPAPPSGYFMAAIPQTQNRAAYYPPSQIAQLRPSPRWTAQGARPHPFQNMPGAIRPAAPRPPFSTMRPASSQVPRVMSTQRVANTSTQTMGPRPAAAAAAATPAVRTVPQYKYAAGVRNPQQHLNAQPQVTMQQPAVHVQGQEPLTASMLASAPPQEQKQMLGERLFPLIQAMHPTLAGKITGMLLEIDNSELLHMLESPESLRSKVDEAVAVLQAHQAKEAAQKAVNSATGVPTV
Cytochrome P450 2D6, sequence (P10635 whole entry): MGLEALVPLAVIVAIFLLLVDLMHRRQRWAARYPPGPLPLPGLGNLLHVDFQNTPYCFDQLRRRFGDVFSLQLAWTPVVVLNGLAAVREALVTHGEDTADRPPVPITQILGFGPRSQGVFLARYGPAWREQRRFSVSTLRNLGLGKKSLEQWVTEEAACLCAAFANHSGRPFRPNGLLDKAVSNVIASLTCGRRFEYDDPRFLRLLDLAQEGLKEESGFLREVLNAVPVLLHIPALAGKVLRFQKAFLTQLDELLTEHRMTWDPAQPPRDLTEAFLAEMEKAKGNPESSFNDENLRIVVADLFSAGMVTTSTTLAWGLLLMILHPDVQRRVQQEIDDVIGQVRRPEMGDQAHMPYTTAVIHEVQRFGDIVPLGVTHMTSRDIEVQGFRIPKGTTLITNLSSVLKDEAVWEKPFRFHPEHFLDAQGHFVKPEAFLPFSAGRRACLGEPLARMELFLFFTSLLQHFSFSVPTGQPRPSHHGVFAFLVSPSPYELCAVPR
Cytochrome P450 2C19, sequence (P33261 whole entry): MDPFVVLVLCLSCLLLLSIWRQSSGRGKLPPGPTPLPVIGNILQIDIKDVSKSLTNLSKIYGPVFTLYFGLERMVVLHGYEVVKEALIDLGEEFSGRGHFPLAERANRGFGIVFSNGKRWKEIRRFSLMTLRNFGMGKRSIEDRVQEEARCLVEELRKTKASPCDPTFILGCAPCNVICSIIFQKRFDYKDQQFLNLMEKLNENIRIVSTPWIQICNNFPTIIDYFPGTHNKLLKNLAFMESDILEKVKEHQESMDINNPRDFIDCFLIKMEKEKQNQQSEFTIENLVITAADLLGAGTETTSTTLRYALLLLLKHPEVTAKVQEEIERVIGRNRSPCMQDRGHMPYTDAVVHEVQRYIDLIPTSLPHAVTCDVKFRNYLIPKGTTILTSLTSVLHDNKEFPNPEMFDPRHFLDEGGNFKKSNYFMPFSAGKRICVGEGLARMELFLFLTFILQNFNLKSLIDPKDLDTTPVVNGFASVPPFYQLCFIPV
Cytochrome P450 2C9, sequence (P11712 whole entry): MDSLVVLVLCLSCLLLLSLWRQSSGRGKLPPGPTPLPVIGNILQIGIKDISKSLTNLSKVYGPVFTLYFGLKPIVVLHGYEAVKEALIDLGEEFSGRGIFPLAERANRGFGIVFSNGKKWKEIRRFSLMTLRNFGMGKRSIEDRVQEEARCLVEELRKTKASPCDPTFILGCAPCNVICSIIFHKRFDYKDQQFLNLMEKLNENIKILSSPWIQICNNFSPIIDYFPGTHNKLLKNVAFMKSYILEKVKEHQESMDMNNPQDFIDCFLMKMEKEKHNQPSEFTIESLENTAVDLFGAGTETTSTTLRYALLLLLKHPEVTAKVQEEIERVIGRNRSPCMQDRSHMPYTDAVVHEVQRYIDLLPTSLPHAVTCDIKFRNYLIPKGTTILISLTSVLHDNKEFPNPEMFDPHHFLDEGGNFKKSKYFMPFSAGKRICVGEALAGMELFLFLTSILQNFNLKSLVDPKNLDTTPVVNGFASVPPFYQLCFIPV
Cytochrome P450 3A4, sequence (P08684 whole entry): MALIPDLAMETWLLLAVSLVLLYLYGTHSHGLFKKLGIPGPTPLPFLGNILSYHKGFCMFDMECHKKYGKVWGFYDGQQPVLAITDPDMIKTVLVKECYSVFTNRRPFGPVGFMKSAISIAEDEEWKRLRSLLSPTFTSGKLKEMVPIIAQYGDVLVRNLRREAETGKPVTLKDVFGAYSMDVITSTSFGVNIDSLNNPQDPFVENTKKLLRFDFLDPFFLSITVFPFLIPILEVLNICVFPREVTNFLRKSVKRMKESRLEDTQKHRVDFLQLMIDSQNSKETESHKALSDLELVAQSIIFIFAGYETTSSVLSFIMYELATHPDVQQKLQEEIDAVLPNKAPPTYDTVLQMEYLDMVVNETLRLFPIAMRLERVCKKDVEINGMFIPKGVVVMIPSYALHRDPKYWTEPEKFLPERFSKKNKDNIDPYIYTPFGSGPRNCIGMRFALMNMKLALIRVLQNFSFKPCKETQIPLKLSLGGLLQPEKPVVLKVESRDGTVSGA

## CCCN1C(=O)C(NC(C)=O)c2cc(OC)ccc21 (stereo unspecified)
Cytochrome P450 2D6
  AC50: 0.00562 µM (inconclusive)
Cytochrome P450 2C19
  AC50: 22.4 µM (inconclusive)
Cytochrome P450 3A4
  AC50: 22.4 µM (inconclusive)

## COC(=O)[C@@]1(Cc2ccccc2)[C@H]2c3cc(C(=O)N(C)C)n(Cc4cc(F)c(F)c(F)c4)c3C[C@H]2CN1C(=O)c1ccccc1
Cytochrome P450 2D6
  AC50: 25.1 µM (inconclusive)

## CCCCCCSc1ccc([C@H]2N[C@@](Cc3ccccc3)(C(=O)OC)[C@H]3C(=O)N(C)C(=O)[C@@H]23)cc1
H9c2
  IC50: > 79 µM (inactive)
INS1
  AC50: 14.1 µM (active)

## CC1CCCN(Cc2nc3c(c(=O)n(C)c(=O)n3C)n2CCCc2ccccc2)C1 (stereo unspecified)
H9c2
  IC50: 12.4 µM (active)

## O=C(Nc1cc(Cl)ccc1-n1cncn1)c1ccc([N+](=O)[O-])s1
[1]
  AC50: 3.72 µM (active)
[2]
  EC50: > 60 µM (not active)
[3]
  EC50: 0.207 µM (active)

## COc1ccc(N(C(=O)c2cccnc2)S(=O)(=O)c2cccs2)cc1
H9c2
  IC50: > 79 µM (inactive)

## COc1ccc(NC(=O)CSc2nnc(CCC(=O)O)c(=O)n2N)cc1
[4]
  IC50: > 66 µM (inactive)
[5]
  IC50: > 66 µM (inactive)

## O=C1c2ccccc2NC(c2c[nH]nc2-c2ccccc2)N1O (stereo unspecified)
H9c2
  IC50: 20.8 µM (active)

## c1ccc(-c2ccc(N3CC[C@@]4(CCCNC4)C3)cc2)cc1
Cytochrome P450 2D6
  AC50: 39.8 µM (inconclusive)
Cytochrome P450 2C19
  AC50: 20 µM (inconclusive)

## COc1ccc(S(=O)(=O)N(C(=O)c2ccncc2)c2ccc(OC(=O)c3ccncc3)cc2)cc1
[1]
  AC50: 1.65 µM (active)

## Oc1nc(S)nc2c1CN(Cc1ccc(F)cc1)CC2
[4]
  IC50: > 66 µM (inactive)
[5]
  IC50: > 66 µM (inactive)

## COc1ccc(-c2nn(-c3ccccc3)cc2C(=O)N2CCN(S(=O)(=O)c3cccc(F)c3)CC2)cc1
[1]
  AC50: 2.04 µM (active)

## COc1ccc(/C=C2\N=C(c3c(-c4ccccc4)noc3C)OC2=O)cc1OC
Cytochrome P450 2C9
  AC50: 1 µM (inconclusive)
Cytochrome P450 2D6
  AC50: 20 µM (inconclusive)
Cytochrome P450 2C19
  AC50: 28.2 µM (inconclusive)

## Cc1ccc2nc(-c3ccc(NS(=O)(=O)c4ccc(F)cc4)cc3)sc2c1
[6]
  EC50: 3.12 µM (active)
[1]
  AC50: 4.57 µM (active)
Streptokinase A
  EC50: > 150 µM (not active)
Streptococcus
  EC50: 5.33 µM (active)

## CSc1nnc2c3cc(F)ccc3n(C)c2n1
[1]
  AC50: 5.56 µM (active)
[7]
  CC50: 30 µM (active)

## CCOC(=O)C1C(=O)NC(SCC(=O)OC)=C(C#N)C1c1ccccc1OCC (stereo unspecified)
H9c2
  IC50: 67.2 µM (inactive)

## CCCc1cc2c(n1Cc1ccc(OC)cc1)C(C)C1CN(C(=O)c3ccccc3)C(C)(C(=O)OC)C21 (stereo unspecified)
Cytochrome P450 1A2
  AC50: 15.8 µM (inconclusive)
Cytochrome P450 2D6
  AC50: 39.8 µM (inconclusive)
Cytochrome P450 2C19
  AC50: 0.00631 µM (inconclusive)

## CC(C)n1nnnc1SCC(=O)c1ccc2c(c1)OCCO2
[8]
  EC50: 0.276 µM (active)
Cytochrome P450 2C9
  AC50: 17.8 µM (inconclusive)
[9]
  EC50: 0.624 µM (active)
Cytochrome P450 2D6
  AC50: 14.1 µM (inconclusive)
H4
  EC50: > 120 µM (not active)

## Cc1nc(O)nc(O)c1/C=C/C(=O)O
P388
  GI50: 631 µM (inactive)
P388/ADR
  GI50: > 1000 µM (inactive)
SN12K1
  GI50: > 1000 µM (inactive)

## CN(C)c1nc(-c2cccc(NS(C)(=O)=O)c2)nc2ccccc12
Cytochrome P450 2D6
  AC50: 25.1 µM (inconclusive)
Cytochrome P450 2C19
  AC50: 20 µM (inconclusive)

## COc1ccccc1CCn1c(=O)c(-c2ccc(F)c(F)c2)nc2cncnc21
Cytochrome P450 2D6
  AC50: 31.6 µM (inconclusive)

## Nc1nncs1
P388
  GI50: 711 µM (inactive)
P388/ADR
  GI50: 665 µM (inactive)
SN12K1
  GI50: 2120 µM (inactive)

## COc1cccc(N2CC(C(=O)NCc3nnc(O)c4ccccc34)CC2=O)c1 (stereo unspecified)
H9c2
  IC50: > 79 µM (inactive)

## CCN(CC(=O)Nc1ccc(OC)cc1)C(=O)CSCc1c(C)noc1C
[4]
  IC50: > 66 µM (inactive)
[5]
  IC50: > 66 µM (inactive)

## CC(=O)c1ccc(-c2cnc3c(NC=O)cc(-c4ccc(C(=O)NC5CC5)cc4)cn23)cc1
H9c2
  IC50: > 79 µM (inactive)

## Cc1cc(NC(=S)Nc2ccccc2)c(NC(=S)Nc2ccccc2)cc1C
P388
  GI50: 1.41 µM (inactive)
P388/ADR
  GI50: 3.3 µM (inactive)
SN12K1
  GI50: 18.5 µM (inactive)

## CC1C(=O)C(C)C(c2ccco2)N(N=O)C1c1ccco1 (stereo unspecified)
P388
  GI50: > 100 µM (inactive)
P388/ADR
  GI50: 63.4 µM (inactive)
SN12K1
  GI50: > 100 µM (inactive)

## CC1=C2C(O)C(C(C)C(=O)N(C)C)CCC2(C)C=CC1=O (stereo unspecified)
P388
  GI50: > 100 µM (inactive)
P388/ADR
  GI50: > 100 µM (inactive)
SN12K1
  GI50: > 100 µM (inactive)

## Cc1cccc(C(=O)N/N=C2\CS(=O)(=O)N(C)c3ccsc32)c1
H9c2
  IC50: > 79 µM (inactive)

## CCCCCC(O)C1C(=O)OC(C)C(O)/C=C/C=C/C=C/C=C/C=C(\C)C(O)C(O)C(O)CC(O)CC(O)CC(O)CC(O)CC1O (stereo unspecified)
P388
  GI50: 0.904 µM (active)
P388/ADR
  GI50: 1.95 µM (inactive)
SN12K1
  GI50: 1.44 µM (inactive)

## COc1cc(/C=C/C(=O)Oc2ccccc2)ccc1C(=O)O/C=C/c1ccccc1
P388
  GI50: 3.78 µM (inactive)
P388/ADR
  GI50: 0.83 µM (active)
SN12K1
  GI50: > 100 µM (inactive)

## O=C(CCN1CCOCC1)/C(=C/c1ccccc1)c1ccccc1
P388
  GI50: 2.29 µM (inactive)
P388/ADR
  GI50: 1.11 µM (active)
SN12K1
  GI50: 3.03 µM (inactive)

## CC(C)NC(=O)OCc1c(COC(=O)NC(C)C)c(-c2ccc(Cl)c(Cl)c2)n2c1CCC2
P388
  GI50: > 100 µM (inactive)
P388/ADR
  GI50: > 100 µM (inactive)
SN12K1
  GI50: > 100 µM (inactive)

## CC[C@]1(O)C[C@H]2CN(CCc3c([nH]c4ccccc34)[C@@](C(=O)OC)(c3cc4c(cc3OC)N(C=O)[C@H]3[C@@](O)(C(=O)OC)[C@H](OC(C)=O)[C@]5(CC)C=CCN6CC[C@]43[C@@H]65)C2)C1 [VINCRISTINE SULFATE]
P388
  GI50: 0.1 µM (active)
P388/ADR
  GI50: 0.171 µM (active)
SN12K1
  GI50: 0.1 µM (active)
